# What was measured:
# [1] = system: cAMP phosphodiesterase; conditions: Chairungsrilerd and Takeuchi et al., 1996; cited from earlier work
# [2] = system: DNA topoisomerase; conditions: Tosa et al., 1997; cited from earlier work
# [3] = target: COX 1 (Homo sapiens, UniProt P23219); conditions: Nakatani et al., 2002, 2004; cited from earlier work
# [4] = system: serotonin receptors; conditions: Chairungsrilerd et al., 1996, 1998; cited from earlier work
# [5] = system: L-929 mouse fibroblast cells; assay: Toxicity Study 1: cytotoxicity of serially diluted extract, microscopic scoring; format: cell-based; conditions: control media/extracts undiluted; triplicate wells
# Protocol: The purpose of this study was to evaluate an extract of mangosteen for its level of cytotoxicity in a mammalian system. Accordingly, a serially diluted extract of a 10% mangosteen pericarp test article for cytotoxicity to mammalian cells in culture (L-929 mouse fibroblast cells, from the American Type Culture Collection: CCL-1). The test article, originally a 10% mangosteen preparation) was incubated in an appropriate volume of cell culture medium (Earle's Minimal Essential Medium, E-MEM) in a sterile vessel for 24 to 25 hours at 37 ±1° C. At the end of the extraction period, the extract was decanted from the test article. A series of eight (8) dilutions of the extract was prepared in culture medium in a two-fold dilution sequence. After the dilutions were prepared, the maintenance culture medium was removed from test culture wells and replaced with 1 ml of article test dilutions. […] The cultures were evaluated for cytotoxic effects by microscopic examination at 24, 48, and 72±4 hours of incubation, and the results scored and recorded. […]
# Criteria for evaluating cytotoxicity included morphologic changes in cells, such as granulation, crenation, or rounding, and loss of viable cells from the monolayer by lysis or detachment. […] Degrees of toxicity are scored according to the scheme in Table 2: […]
# [6] = system: mammalian cells in culture; assay: Toxicity Study 2: cytotoxicity of serially diluted extract, microscopic scoring; format: cell-based; conditions: control media/extracts undiluted
# Protocol: The purpose of this study was to evaluate a serially diluted extract of a 40% mangosteen pericarp test article for cytotoxicity to mammalian cells in culture. The test article was incubated in an appropriate volume of E-MEM in a sterile vessel for 24 to 25 hours at 37 f 1° C. After measures were taken to create a clear supernatant, a series of eight (8) dilutions of the extract were prepared in E-MEM in a two-fold dilution sequence. After the dilutions were prepared, the maintenance culture media was removed from test culture wells and replaced with 1 ml of test media dilutions in triplicate wells. The positive control media, test article extract, and control extracts were added at the same time to the culture plate in triplicate wells. The plates were incubated for 72 hours at 37±1° C. in a humidified atmosphere of 5±1% CO2 in air. The cultures were evaluated for cytotoxic effects by microscopic examination at 24,48 and 72±4 hours of incubation and the results scored and recorded. After the 24 hour extraction the liquid was transferred to a 50 mL conical tube and centrifuged for 10 minutes at 3000 rpm. A small pellet of powder created by the separation was discarded, the resultant supernatant was clear with a light brown color and a pH of 7.5.
# Criteria for evaluating cytotoxicity included morphologic changes in cells, such as granulation, crenation, or rounding, and loss of viable cells from the monolayer by lysis or detachment. The validity of the test requires that negative control cultures maintain a healthy normal appearance throughout the duration of the test. Degrees of toxicity are scored as in Table 1, above: […]
# Sequence of COX 1 (P23219 24-599): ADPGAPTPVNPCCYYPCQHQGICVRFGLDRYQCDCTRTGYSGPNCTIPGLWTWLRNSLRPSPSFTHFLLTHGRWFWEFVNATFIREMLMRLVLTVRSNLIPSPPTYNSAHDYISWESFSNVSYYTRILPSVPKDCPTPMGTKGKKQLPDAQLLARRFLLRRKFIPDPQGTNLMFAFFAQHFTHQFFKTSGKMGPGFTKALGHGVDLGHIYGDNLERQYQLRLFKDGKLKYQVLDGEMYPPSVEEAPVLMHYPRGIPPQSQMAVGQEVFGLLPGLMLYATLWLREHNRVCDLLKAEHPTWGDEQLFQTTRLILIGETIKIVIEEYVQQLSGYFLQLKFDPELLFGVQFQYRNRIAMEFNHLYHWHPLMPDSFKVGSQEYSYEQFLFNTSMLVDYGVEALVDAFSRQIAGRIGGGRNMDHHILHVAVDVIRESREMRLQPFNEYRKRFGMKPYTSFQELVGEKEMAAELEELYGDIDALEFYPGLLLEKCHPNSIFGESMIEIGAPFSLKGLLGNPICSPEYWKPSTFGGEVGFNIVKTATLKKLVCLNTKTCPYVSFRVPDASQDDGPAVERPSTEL
compound,measurement,setting,value
COc1c(O)cc2oc3cc4c(c(O)c3c(=O)c2c1CC=C(C)C)CC(O)C(C)(C)O4 (centres unmarked) [Mangostanol],inhibition of cAMP phosphodiesterase,[1],strong inhibition
CC(C)=CCc1c(O)cc2oc3cc(O)c(O)c(CC=C(C)C)c3c(=O)c2c1O [gamma-mangostin],inhibition of DNA topoisomerase,[2],inhibits
same,inhibition of the activity of cyclooxygenase COX 1,[3],directly inhibit the activity
same,action on serotonin receptors,[4],antagonist
"[Cl][Cd][Cl] [Positive Control, CdCl2]",Cytotoxicity Scores at 72 Hr,[5],4/4/4
same,Cytoxicity Scores 24 Hr,[6],4/4/4
same,Cytoxicity Scores 48 Hr,[6],4/4/4
same,Cytoxicity Scores 72 Hr,[6],4/4/4
